Experimental data as given in patent US8722849B2, “Polypeptides” (Novo Nordisk A/S, priority 2011, dated 2014).
Converted amounts (≈) assume the structure as drawn. Read-outs that look alike come from different tables or passages of the source. Starred links: 1 amine or outer side, 2 acyl side, 3 side chain; linkers in the order of their positions; H or OH if unused. Positions of bridges follow the written chain, without caps; N, C: chain ends. Residues, ends and D or L forms follow the SMILES beside them. *: point of attachment. C20 diacid = O=C(O)CCCCCCCCCCCCCCCCCCC(=O)*; γGlu = O=C(O)[C@H](CCC(=O)[*:2])N[*:1]

Key:
[1] = biological target: T1, human amylin receptor (amylin 3(a) receptor: human calcitonin receptor + RAMP-3) (Homo sapiens, UniProt O60896+P30988); assay: Assay (II)a functional CRE-luciferase assay, human amylin receptor; type: cell-based; settings: Table 2; BHK amylin 3(a)-receptor/CRE-luc cells
T1 construct: expressed in transfected cells; host or cells: BHK570
T1 sequence (P30988 25-474): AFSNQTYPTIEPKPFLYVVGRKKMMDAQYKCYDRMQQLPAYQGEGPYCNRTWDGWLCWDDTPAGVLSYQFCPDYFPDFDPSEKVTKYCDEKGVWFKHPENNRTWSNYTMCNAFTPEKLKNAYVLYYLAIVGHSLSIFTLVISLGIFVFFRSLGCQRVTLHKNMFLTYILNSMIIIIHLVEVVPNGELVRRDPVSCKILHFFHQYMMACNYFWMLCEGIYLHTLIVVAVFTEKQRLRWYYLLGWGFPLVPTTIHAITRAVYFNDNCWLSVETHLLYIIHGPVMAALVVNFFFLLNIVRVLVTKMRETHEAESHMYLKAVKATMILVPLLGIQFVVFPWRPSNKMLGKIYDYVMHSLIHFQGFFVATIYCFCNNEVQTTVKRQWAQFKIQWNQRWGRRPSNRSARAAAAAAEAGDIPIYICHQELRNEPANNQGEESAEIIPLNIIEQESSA
T1 sequence (O60896 24-148 partner): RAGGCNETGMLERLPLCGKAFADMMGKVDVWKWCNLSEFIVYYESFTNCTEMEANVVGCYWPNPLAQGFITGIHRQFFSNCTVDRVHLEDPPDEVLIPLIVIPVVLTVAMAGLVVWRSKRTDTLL

[2] = biological target: T2, human calcitonin receptor (Homo sapiens, UniProt P30988); assay: Assay (II)a functional CRE-luciferase assay, human calcitonin receptor; type: cell-based; settings: Table 7; human calcitonin (CTa) receptor
T2 construct: expressed in transfected cells; host or cells: BHK570
T2 sequence (P30988 25-474): T1 sequence (P30988 25-474)

[3] = Assay (III) ThT fibrillation assay for physical stability; type: physicochemical
Summary of the method: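 Freshly prepared formulations, pH-adjusted, with 1 μM ThT; four or eight replicates incubated at 37 °C under 960 rpm orbital shaking. Fluorescence (ex 444/em 485 nm) read every 20 min; […]. Peptide concentration measured by RP-HPLC before and after the run.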

[4] = Assay (IV) determination of solubility; type: physicochemical
Summary of the method: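 Stock ~500 nmol/ml in water; 1:1 with 100 mM buffer, pH 3.0–8.0 (glycylglycine ≤5.0, bistrispropane ≥6.0); 18 h RT; spin; HPLC quantitation of soluble polypeptide.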

[5] = bistrispropane buffer, pH 6, pH 6.0, read-out: Solubility pH 6.0
[6] = bistrispropane buffer, pH 6.5, pH 6.5, read-out: Solubility pH 6.5
[7] = bistrispropane buffer, pH 7, pH 7.0, read-out: Solubility pH 7.0
[8] = bistrispropane buffer, pH 7.5, pH 7.5, read-out: Solubility pH 7.5
[9] = bistrispropane buffer, pH 8, pH 8.0, read-out: Solubility pH 8.0
[10] = glycylglycine buffer, pH 3, pH 3.0, read-out: Solubility pH 3.0
[11] = glycylglycine buffer, pH 4, pH 4.0, 18 hours at room temperature, Table 2, read-out: Solubility pH 4.0
[12] = glycylglycine buffer, pH 4, pH 4.0, read-out: Solubility pH 4.0
[13] = glycylglycine buffer, pH 5, pH 5.0, read-out: Solubility pH 5.0

EC50 [1] [pM]	EC50 [2] [pM]	ThT pH 4.0 lag time ([3]; ThT fibrillation assay) [h]	ThT pH 4.0 lag time (h) ([3]; ThT fibrillation assay)	solubility at 18 h [4, 5] [µM]	solubility at 18 h [4, 6] [µM]	solubility at 18 h [4, 7] [µM]	solubility at 18 h [4, 8] [µM]	solubility at 18 h [4, 9] [µM]	solubility at 18 h [4, 10] [µM]	solubility at 18 h [4, 11] [µM]	solubility at 18 h [4, 12] [µM]	solubility at 18 h [4, 13] [µM]	ThT pH 4.0 lag time ([3]; Table 8) [h]	ThT pH 4.0 lag time ([3]; Table 9) [h]	solubility at 18 h ([4]; bistrispropane buffer, pH 7, pH 7.0, 18 hours at room temperature, Table 3, read-out: Solubility pH 7.0) [µM]	solubility at 18 h ([4]; bistrispropane buffer, pH 7, pH 7.0, Table 8, read-out: Solubility pH 7.0) [µM]	solubility at 18 h ([4]; bistrispropane buffer, pH 7, pH 7.0, Table 9, read-out: Solubility pH 7.0) [µM]	solubility at 18 h ([4]; bistrispropane buffer, pH 7.5, pH 7.5, Table 9, read-out: Solubility pH 7.5) [µM]	Structure (SMILES)
394	570	>45	>45	2 (≈ 8.92 µg/mL)	1 (≈ 4.46 µg/mL)	1 (≈ 4.46 µg/mL)	1 (≈ 4.46 µg/mL)	3 (≈ 13.4 µg/mL)	> 200	> 200	> 200	> 200	–	–	–	–	–	–	CC[C@H](C)[C@H](NC(=O)[C@@H]1CCCN1C(=O)CNC(=O)[C@H](Cc1ccccc1)NC(=O)[C@H](CC(N)=O)NC(=O)[C@H](CO)NC(=O)[C@H](CO)NC(=O)[C@H](CO)NC(=O)[C@H](Cc1c[nH]cn1)NC(=O)[C@H](CCCNC(=N)N)NC(=O)[C@H](CC(C)C)NC(=O)[C@H](Cc1ccccc1)NC(=O)[C@H](CCC(=O)O)NC(=O)[C@H](C)NC(=O)[C@H](CC(C)C)NC(=O)[C@H](CCCNC(=N)N)NC(=O)[C@H](CCC(N)=O)NC(=O)[C@@H](NC(=O)[C@H](C)NC(=O)[C@@H]1CSSC[C@H](NC(=O)[C@H](Cc2c[nH]cn2)NC(=O)CC[C@H](NC(=O)CCCCCCCCCCCCCCCCCCC(=O)O)C(=O)O)C(=O)N[C@@H](CC(N)=O)C(=O)N[C@@H]([C@@H](C)O)C(=O)N[C@@H](C)C(=O)N[C@@H]([C@@H](C)O)C(=O)N1)[C@@H](C)O)C(=O)N[C@@H](CC(C)C)C(=O)N[C@@H](CO)C(=O)N[C@@H](CO)C(=O)N[C@H](C(=O)N[C@@H](CC(N)=O)C(=O)N[C@H](C(=O)NCC(=O)N[C@@H](CO)C(=O)N[C@@H](Cc1c[nH]cn1)C(=O)N[C@H](C(=O)N[C@@H](Cc1ccc(O)cc1)C(N)=O)[C@@H](C)O)C(C)C)[C@@H](C)O [Example 111, N-alpha-[(S)-4-Carboxy-4-(19-carboxynonadecanoylamino)butyryl]-[His1,Glu14,Arg17,Ser21,Ser28,Ser29,His35]-pramlintide] ({C20 diacid-γGlu}-HCNTATCATQRLAEFLRHSSSNFGPILSSTNVGSHTY-NH2; disulfide 2-7 (inferred))
98	104	>45	>45	> 200	161 (≈ 724 µg/mL)	23 (≈ 103 µg/mL)	4 (≈ 18 µg/mL)	2 (≈ 9 µg/mL)	> 200	> 200	> 200	> 200	–	–	–	–	–	–	CC[C@H](C)[C@H](NC(=O)[C@@H]1CCCN1C(=O)CNC(=O)[C@H](Cc1ccccc1)NC(=O)[C@H](CC(N)=O)NC(=O)[C@H](CC(N)=O)NC(=O)[C@H](CO)NC(=O)[C@H](CO)NC(=O)[C@H](Cc1c[nH]cn1)NC(=O)[C@H](Cc1c[nH]cn1)NC(=O)[C@H](CC(C)C)NC(=O)[C@H](Cc1ccccc1)NC(=O)[C@H](CCC(=O)O)NC(=O)[C@H](C)NC(=O)[C@H](CC(C)C)NC(=O)[C@H](CCCNC(=N)N)NC(=O)[C@H](CCC(N)=O)NC(=O)[C@@H](NC(=O)[C@H](C)NC(=O)[C@@H]1CSSC[C@H](NC(=O)[C@H](CCCCN)NC(=O)CC[C@H](NC(=O)CCCCCCCCCCCCCCCCCCC(=O)O)C(=O)O)C(=O)N[C@@H](CC(N)=O)C(=O)N[C@@H]([C@@H](C)O)C(=O)N[C@@H](C)C(=O)N[C@@H]([C@@H](C)O)C(=O)N1)[C@@H](C)O)C(=O)N[C@@H](CC(C)C)C(=O)N1CCC[C@H]1C(=O)N1CCC[C@H]1C(=O)N[C@H](C(=O)N[C@@H](CC(N)=O)C(=O)N[C@H](C(=O)NCC(=O)N[C@@H](CO)C(=O)N[C@@H](CCCNC(=N)N)C(=O)N[C@H](C(=O)N[C@@H](Cc1ccc(O)cc1)C(N)=O)[C@@H](C)O)C(C)C)[C@@H](C)O [Example 112, N-alpha-[(S)-4-Carboxy-4-(19-carboxynonadecanoylamino)butyryl]-[Glu14,His17,Arg35]-pramlintide] ({C20 diacid-γGlu}-KCNTATCATQRLAEFLHHSSNNFGPILPPTNVGSRTY-NH2; disulfide 2-7 (inferred); C-terminus assumed)
134	130	>45	>45	> 200	> 200	> 200	188 (≈ 840 µg/mL)	124 (≈ 554 µg/mL)	> 200	> 200	> 200	> 200	>45	>45	> 200	> 200	> 200	188 (≈ 840 µg/mL)	CC[C@H](C)[C@H](NC(=O)[C@@H]1CCCN1C(=O)CNC(=O)[C@H](Cc1ccccc1)NC(=O)[C@H](CC(N)=O)NC(=O)[C@H](CC(N)=O)NC(=O)[C@H](CO)NC(=O)[C@H](CO)NC(=O)[C@H](Cc1c[nH]cn1)NC(=O)[C@H](Cc1c[nH]cn1)NC(=O)[C@H](CC(C)C)NC(=O)[C@H](Cc1ccccc1)NC(=O)[C@H](CCC(=O)O)NC(=O)[C@H](C)NC(=O)[C@H](CC(C)C)NC(=O)[C@H](CCCNC(=N)N)NC(=O)[C@H](CCC(N)=O)NC(=O)[C@@H](NC(=O)[C@H](C)NC(=O)[C@@H]1CSSC[C@H](NC(=O)[C@H](CCCCN)NC(=O)CC[C@H](NC(=O)CCCCCCCCCCCCCCCCCCC(=O)O)C(=O)O)C(=O)N[C@@H](CC(N)=O)C(=O)N[C@@H]([C@@H](C)O)C(=O)N[C@@H](C)C(=O)N[C@@H]([C@@H](C)O)C(=O)N1)[C@@H](C)O)C(=O)N[C@@H](CC(C)C)C(=O)N1CCC[C@H]1C(=O)N1CCC[C@H]1C(=O)N[C@H](C(=O)N[C@@H](CC(N)=O)C(=O)N[C@H](C(=O)NCC(=O)N[C@@H](CO)C(=O)N[C@@H](CCCCN)C(=O)N[C@H](C(=O)N[C@@H](Cc1ccc(O)cc1)C(N)=O)[C@@H](C)O)C(C)C)[C@@H](C)O [Example 113, N-alpha-[(S)-4-Carboxy-4-(19-carboxynonadecanoylamino)butyryl]-[Glu14,His17,Lys35]-pramlintide] ({C20 diacid-γGlu}-KCNTATCATQRLAEFLHHSSNNFGPILPPTNVGSKTY-NH2; disulfide 2-7 (inferred))
382	113	>45	>45	> 200	73 (≈ 328 µg/mL)	14 (≈ 62.9 µg/mL)	31 (≈ 139 µg/mL)	79 (≈ 355 µg/mL)	> 200	> 200	> 200	> 200	–	–	–	–	–	–	CC[C@H](C)[C@H](NC(=O)[C@@H]1CCCN1C(=O)CNC(=O)[C@H](Cc1ccccc1)NC(=O)[C@H](CC(N)=O)NC(=O)[C@H](CC(N)=O)NC(=O)[C@H](CO)NC(=O)[C@H](CO)NC(=O)[C@H](Cc1c[nH]cn1)NC(=O)[C@H](Cc1c[nH]cn1)NC(=O)[C@H](CC(C)C)NC(=O)[C@H](Cc1ccccc1)NC(=O)[C@H](CCC(=O)O)NC(=O)[C@H](C)NC(=O)[C@H](CC(C)C)NC(=O)[C@H](CCCNC(=N)N)NC(=O)[C@H](CCC(N)=O)NC(=O)[C@@H](NC(=O)[C@H](C)NC(=O)[C@@H]1CSSC[C@H](NC(=O)[C@H](CCCCN)NC(=O)CC[C@H](NC(=O)CCCCCCCCCCCCCCCCCCC(=O)O)C(=O)O)C(=O)N[C@@H](CC(N)=O)C(=O)N[C@@H]([C@@H](C)O)C(=O)N[C@@H](C)C(=O)N[C@@H]([C@@H](C)O)C(=O)N1)[C@@H](C)O)C(=O)N[C@@H](CC(C)C)C(=O)N1CCC[C@H]1C(=O)N1CCC[C@H]1C(=O)N[C@H](C(=O)N[C@@H](CC(N)=O)C(=O)N[C@H](C(=O)NCC(=O)N[C@@H](CO)C(=O)N[C@@H](CC(N)=O)C(=O)N[C@@H](Cc1c[nH]cn1)C(=O)N[C@@H](Cc1ccc(O)cc1)C(N)=O)C(C)C)[C@@H](C)O [Example 114, N-alpha-[(S)-4-Carboxy-4-(19-carboxynonadecanoylamino)butyryl]-[Glu14,His17,His36]-pramlintide] ({C20 diacid-γGlu}-KCNTATCATQRLAEFLHHSSNNFGPILPPTNVGSNHY-NH2; disulfide 2-7 (inferred))
